From patent publication US12534451B2, “Small molecule modulators of PanK” (St. Jude Children's Research Hospital, priority 2019, dated 2026)

Legend:
[1] = system: Human C3A [HepG2/C3A] cells; experiment: Cellular total CoA determination in C3A cells; format: cell-based; details: 24 hrs of treatment
Experimental: Human C3A [HepG2/C3A, derivative of HepG2] cells (ATCC #CRL-10741) were purchased from ATCC® and maintained in Eagle's minimum Essential medium (ATCC) supplemented with 2 mM glutamine, 10% fetal bovine serum (FCS, Altanta Biologicals), 50 U/ml penicillin and […] streptomycin. The C3A cell line was confirmed to be mycoplasma-free. Test compounds or vehicle control (DMSO) was added and after 24 hrs of treatment the cells were washed with PBS and harvested and subjected to total CoA determination.
Cultured cells were resuspended in 2 ml cold water to which 500 μl of 0.25M KOH was added, derivatized with monobromobimane (mBBr, Life technologies) and quantified by HPLC. 30 mg of frozen tissue is homogenized in 2 ml of 1 mM KOH and then derivatized with mBBr. The mBBr derivatized samples were fractionated by reverse-phase HPLC using a Gemini C18 3 μm column (150×4.60 mm) from Phenomenex. The chromatography system was a Waters e2695 separation module with a UV/Vis and fluorescence detector and controlled by Empower 3 software. Solvent A was 50 mM potassium phosphate pH 4.6, and solvent B was 100% acetonitrile. Twenty microliters of sample was injected onto the column, and the flow rate was 0.5 ml/min. The HPLC program was the following: starting solvent mixture of 90% A/10% B, 0-2 min isocratic with 10% B, 2-6 min linear gradient from 10% B to 15% B, 6-18 min concave gradient from 15% B to 40% B, 18-23 min isocratic with 40% B, 23-25 min linear gradient from 40 to 10%, and 25-30 min isocratic with 10% B. The UV/vis detector was set at 393 nm, and the fluorescence detector was set with excitation at 393 nm and emission at 470 nm. The elution position of the mBBr-CoA, was determined by comparison with mBBr-CoA prepared from commercial CoA (Avanti Polar Lipids). The areas under the mBBr-derivatized CoA was integrated and compared to known concentrations of the mBBr-CoA standard.

human PANK3 = human PANK3 (Homo sapiens (Human), UniProt Q9H999); experiment: PANK activity assay (radiochemical, D-[1-14C]pantothenate); format: biochemical; details: 5 nM human PANK3, 2.5 mM ATP, 45 μM pantothenate, 10 min at 37° C.; average ± data range
Chain of human PANK3 (Q9H999 whole entry): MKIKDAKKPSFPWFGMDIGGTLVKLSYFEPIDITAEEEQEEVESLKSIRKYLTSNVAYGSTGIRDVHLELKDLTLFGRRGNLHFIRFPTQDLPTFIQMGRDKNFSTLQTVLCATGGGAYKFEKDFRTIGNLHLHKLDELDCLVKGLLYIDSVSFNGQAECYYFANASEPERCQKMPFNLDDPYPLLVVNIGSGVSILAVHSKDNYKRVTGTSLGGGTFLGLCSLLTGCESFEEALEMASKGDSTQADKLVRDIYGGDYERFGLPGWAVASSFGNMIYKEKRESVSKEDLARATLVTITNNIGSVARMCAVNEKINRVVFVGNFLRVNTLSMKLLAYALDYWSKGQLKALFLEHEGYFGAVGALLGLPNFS
Experimental: The PanK activity and Surface Plasmon Resonance assays were conducted as explained in the literature.
If the IC^50 was determined to be in the nM range then the assay was repeated in the presence of 0-1 μM or 0-0.1 μM compound to more precisely determine the IC^50. All the experiments were repeated twice in duplicate and the data were an average ±data range.
The experiments mimicking the mixture of ligands present in vivo were performed under different conditions. […] The IC^50 values for the structure-activity study were calculated by fitting the inhibition data to a one-site model of the Michaelis-Menten equation. […] Thus, the data were fit to Morrison's quadratic equation (GraphPad software) that accounts for the impact of enzyme inhibitor binding on the free concentration of inhibitor.

Row | IC50 (human PANK3) [nM] | Compound | C3A CoA% elevation [1] [%]
1 | 1.3 ± 0.06 | CS(=O)(=O)Nc1ccc(CC(=O)N2CCN(c3nc4c(F)cc(F)cc4s3)CC2)cc1 [PZ-4324] | 104.3
2 | 26 ± 3 | O=C(Cc1ccc(C2CC2)cc1)N1CCN(c2nc3ccccc3s2)CC1 [PZ-4285] | 223.7
3 | 2.1 ± 0.1 | O=C(Cc1ccc(C2CC2)cc1)N1CCN(c2nc3c(F)cc(F)cc3s2)CC1 [PZ-4291] | 238.4
4 | 3.9 ± 0.3 | O=C(Cc1ccc(C2CC2)cc1)N1CCN(c2nc3ccc(F)cc3s2)CC1 [PZ-4300] | 242.5
5 | 7.2 ± 1.3 | O=C(Cc1ccc(C2CC2)cc1)N1CCN(c2nc3c(F)cccc3s2)CC1 [PZ-4299] | 228.4
6 | 4.1 ± 0.49 | CS(=O)(=O)Nc1ccc(CC(=O)N2CCN(c3nc4c(F)cccc4s3)CC2)cc1 [PZ-4322] | 171.6
7 | 1.4 ± 0.16 | CS(=O)(=O)Nc1ccc(CC(=O)N2CCN(c3nc4ncccc4s3)CC2)cc1 [PZ-4320] | 58
8 | 13 ± 1.3 | CS(=O)(=O)Nc1ccc(CC(=O)N2CCN(c3nc4ccccc4s3)CC2)cc1 [PZ-4294] | 102.23
9 | 5 ± 0.5 | CN(C)c1ccc(CC(=O)N2CCN(c3nc4ncccc4s3)CC2)cc1 [PZ-4316] | 183.4
10 | 4 ± 0.3 | CCS(=O)(=O)Nc1ccc(CC(=O)N2CCN(c3ccc(C#N)nn3)CC2)cc1 [PZ-4215] | 160.9
11 | 52.9 ± 6.4 | O=C(Cc1ccc(C2CC2)cc1)N1CCN(c2nc3cccnc3o2)CC1 [PZ-4301] | 268.3

Row | Compound | IC50 (human PANK3) [nM] | C3A CoA% elevation [1] [%]
12 | CS(=O)(=O)Nc1ccc(CC(=O)N2CCN(c3ccc(Cl)nn3)CC2)cc1 [PZ-4140, N-(4-(2-(4-(6-chloropyridazin-3-yl)piperazin-1-yl)-2-oxoethyl)phenyl)methanesulfonamide] | 3.8 ± 0.1 | 64.4
